Tests used:
[1] = Displacement of [3H]nisoxetine from rat brain NAT; format: tissue-based
Rattus norvegicus [2] = organism: Rattus norvegicus; assay: Selectivity for rat NAT over rat SERT
Rattus norvegicus [3] = organism: Rattus norvegicus; assay: Selectivity for rat NAT over rat DAT
[4] = molecular target: Sodium-dependent serotonin transporter (Rattus norvegicus, UniProt P31652); assay: Displacement of [3H]citalopram from rat brain SERT
[5] = molecular target: Sodium-dependent dopamine transporter (Rattus norvegicus, UniProt P23977); assay: Displacement of [3H]WIN-35428 from rat brain DAT; format: tissue-based
Sodium-dependent dopamine transporter, sequence (P23977 whole entry): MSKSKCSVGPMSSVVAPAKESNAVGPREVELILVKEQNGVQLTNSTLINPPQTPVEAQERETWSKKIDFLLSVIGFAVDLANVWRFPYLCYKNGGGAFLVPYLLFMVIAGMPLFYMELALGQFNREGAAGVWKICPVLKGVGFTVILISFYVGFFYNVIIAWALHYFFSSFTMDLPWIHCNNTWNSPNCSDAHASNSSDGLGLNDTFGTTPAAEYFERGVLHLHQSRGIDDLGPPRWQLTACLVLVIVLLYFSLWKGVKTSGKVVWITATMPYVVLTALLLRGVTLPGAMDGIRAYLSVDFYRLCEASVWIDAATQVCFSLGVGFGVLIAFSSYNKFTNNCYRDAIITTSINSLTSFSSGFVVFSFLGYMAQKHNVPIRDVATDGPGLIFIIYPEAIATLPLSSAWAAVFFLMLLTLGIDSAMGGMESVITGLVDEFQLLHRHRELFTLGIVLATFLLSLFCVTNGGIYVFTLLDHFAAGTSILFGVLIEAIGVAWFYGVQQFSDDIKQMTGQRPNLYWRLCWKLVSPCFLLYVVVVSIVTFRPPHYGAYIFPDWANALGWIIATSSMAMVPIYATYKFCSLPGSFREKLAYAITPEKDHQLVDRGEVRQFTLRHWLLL

Sodium-dependent serotonin transporter, sequence (P31652 whole entry): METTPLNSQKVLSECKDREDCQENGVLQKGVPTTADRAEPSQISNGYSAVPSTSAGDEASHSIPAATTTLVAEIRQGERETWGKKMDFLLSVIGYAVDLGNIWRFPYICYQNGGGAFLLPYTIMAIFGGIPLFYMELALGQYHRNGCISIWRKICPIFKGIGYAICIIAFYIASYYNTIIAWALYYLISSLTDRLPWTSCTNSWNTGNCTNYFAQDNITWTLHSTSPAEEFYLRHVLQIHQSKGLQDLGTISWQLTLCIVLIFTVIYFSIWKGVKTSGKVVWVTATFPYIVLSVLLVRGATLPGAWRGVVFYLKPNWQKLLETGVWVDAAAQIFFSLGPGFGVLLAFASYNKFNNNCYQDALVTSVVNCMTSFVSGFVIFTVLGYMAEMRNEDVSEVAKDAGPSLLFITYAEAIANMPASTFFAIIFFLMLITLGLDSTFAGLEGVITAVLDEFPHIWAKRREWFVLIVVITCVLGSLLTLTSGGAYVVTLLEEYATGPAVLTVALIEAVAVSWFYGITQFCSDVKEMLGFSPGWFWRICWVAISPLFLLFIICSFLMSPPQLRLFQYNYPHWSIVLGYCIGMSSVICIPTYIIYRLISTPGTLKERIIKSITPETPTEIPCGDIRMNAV

| Ki [1] [nM] | Ratio Ki (Rattus norvegicus [2]) | Ratio Ki (Rattus norvegicus [3]) | Ki [4] [nM] | Ki [5] [nM] | SMILES |
| --- | --- | --- | --- | --- | --- |
| 53.8 | 50 | 25 | 2790 | 1460 | CCOc1ccccc1O[C@@H](c1ccc(I)cc1)[C@@H]1CNCCO1 |
| 58.2 | – | – | – | – | CCOc1ccccc1O[C@@H](c1ccc(I)cc1)[C@H]1CNCCO1 |
| 64 | – | – | 646 | 716 | CCOc1ccccc1O[C@H](c1ccc(I)cc1)[C@H]1CNCCO1 |
| 321 | – | – | – | – | CCOc1ccccc1O[C@H](c1ccc(I)cc1)[C@@H]1CNCCO1 |

Source: ChEMBL document CHEMBL1144186, “New iodoreboxetine analogues for SPECT imaging of the noradrenaline transporter” (Bioorg Med Chem Lett, 2008)
